Measured values as given in patent US20230090742A1, “AMINOPYRIMIDINYLAMINOBENZONITRILE DERIVATIVES AS NEK2 INHIBITORS” (Sumitomo Pharma Oncology, Inc., priority 2020, published 2023).
Like-named read-outs stand apart in the source and are kept apart here.

Tests used:
[1] = target: T1, NEK2 kinase (Accession No. NP-002488) (Homo sapiens, UniProt P51955); assay: HotSpot Kinase Assay, NEK2; type: biochemical
T1 construct: purchased ThermoFisher Scientific (Invitrogen)
T1 sequence (P51955 1-445): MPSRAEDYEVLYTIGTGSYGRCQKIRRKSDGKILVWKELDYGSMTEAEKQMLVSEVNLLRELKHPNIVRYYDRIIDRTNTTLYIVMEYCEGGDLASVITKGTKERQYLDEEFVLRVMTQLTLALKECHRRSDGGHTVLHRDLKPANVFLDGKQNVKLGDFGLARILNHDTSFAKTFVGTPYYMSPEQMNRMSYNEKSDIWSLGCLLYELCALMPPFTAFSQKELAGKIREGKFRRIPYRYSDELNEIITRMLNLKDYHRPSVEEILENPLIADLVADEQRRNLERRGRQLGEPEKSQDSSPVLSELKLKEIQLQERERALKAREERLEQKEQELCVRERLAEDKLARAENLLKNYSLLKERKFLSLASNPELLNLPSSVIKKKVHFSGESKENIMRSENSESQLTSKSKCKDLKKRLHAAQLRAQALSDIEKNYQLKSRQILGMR
Method: (§1) In this example, the compounds described herein were tested for their inhibitory activity against NEK2 and/or Aurora A using the HotSpot™ Kinase Assay (Reaction Biology Corp.). The assay was performed according to the manufacturer's protocol, as detailed below. The NEK2 kinase (Accession No. NP-002488) and Aurora A kinase (Accession No. NP-940839) for use in these assays was sourced from ThermoFisher Scientific (Invitrogen).
(§2) The base Reaction Buffer used in this experiment contained the following: 20 mM Hepes (pH 7.5), 10 mM MgCl2, 1 mM EGTA, 0.02% Brij™-35, 0.02 mg/ml BSA, 0.1 mM Na3VO4, 2 mM DTT, and 1% DMSO. The required cofactors were added individually to each kinase reaction.
(§3) Testing compounds were dissolved in 100% DMSO to a specific concentration. The serial dilution was conducted by Integra Viaflo Assist in DMSO.
(§4) The substrate was prepared in freshly prepared Reaction Buffer. The required cofactors were delivered to the substrate solution described above. NEK2 kinase or Aurora A kinase was delivered to the substrate solution and gently mixed. Next, the compounds in 100% DMSO were transferred to the kinase reaction mixture by Acoustic technology (Echo550; nanoliter range) and incubated for 20 min at room temperature. ^33P-ATP (Specific activity 10 μCi/μl) was delivered into the reaction mixture to initiate the reaction. The reaction was incubated for 2 hours at room temperature. Radioactivity was then detected by the filter-binding method. Kinase activity data were expressed as the percent remaining kinase activity in test samples compared to vehicle (dimethyl sulfoxide) reactions. IC50 values and curve fits were obtained using Prism (GraphPad Software).

[2] = target: T2, Aurora A kinase (Accession No. NP-940839) (Homo sapiens, UniProt O14965); assay: HotSpot Kinase Assay, Aurora A; type: biochemical
T2 construct: purchased ThermoFisher Scientific (Invitrogen)
T2 sequence (O14965 1-403): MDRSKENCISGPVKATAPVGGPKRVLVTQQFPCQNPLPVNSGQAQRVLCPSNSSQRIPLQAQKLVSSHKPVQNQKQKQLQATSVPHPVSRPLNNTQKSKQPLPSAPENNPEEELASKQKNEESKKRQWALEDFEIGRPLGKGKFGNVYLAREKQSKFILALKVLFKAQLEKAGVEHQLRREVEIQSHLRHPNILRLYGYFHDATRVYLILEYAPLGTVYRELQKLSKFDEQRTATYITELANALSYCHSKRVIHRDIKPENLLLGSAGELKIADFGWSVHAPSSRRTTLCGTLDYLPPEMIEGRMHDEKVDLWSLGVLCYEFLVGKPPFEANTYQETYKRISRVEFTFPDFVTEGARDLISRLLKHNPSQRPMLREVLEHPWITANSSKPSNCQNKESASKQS
Method: as §1, §2, §3, §4

[3] = target: T3, NEK2 (Homo sapiens, UniProt P51955); assay: NanoBRET Target Engagement Intracellular Kinase Assay for NEK2 in transfected HEK293 cells; type: cell-based
T3 construct: expressed in transfected cells; host or cells: HEK293
T3 sequence (P51955 1-445): T1 sequence (P51955 1-445)
Method: In this example, the compounds described herein were tested for their inhibitory activity against NEK2 using a model of in vivo activity by the NanoBRET™ Target Engagement Intracellular Kinase Assay (Reaction Biology Corp.). The assay was performed according to the manufacturer's protocol, as detailed below.
HEK293 cells were cultivated (70-80% confluence) prior to the assay. The sample was trypsinized and HEK293 cells were collected.
To prepare lipid: DNA complexes, a 10 μg/ml solution of DNA in Opti-MEM without serum was prepared that consisted of the following ratios of carrier DNA and DNA encoding NanoLuc® fusion: 9.0 μg/ml of Transfection Carrier DNA, 1.0 μg/ml of NanoLuc fusion vector DNA and 1 ml of Opti-MEM without phenol red. The solution was mixed thoroughly. 30 μl of FuGENE HD Transfection Reagent was added into each milliliter of DNA mixture to form lipid: DNA complex. The sample was mixed by inversion 10 times and then incubated at ambient temperature for 20 minutes to allow complexes to form. In a sterile, conical tube, 1 part of lipid:DNA complex was mixed with 20 parts of HEK293 cells in suspension. The resulting sample was mixed gently by inversion 5 times. The cell and lipid: DNA complex was dispensed into a sterile tissue culture dish and incubated for 22-24 hours.
Each test compound is delivered from the compound source plate to the wells of 384-well white NBS plate by Echo 550.
Step 3. Preparation of Cells with NanoBRET™ Tracer K5 Reagent:
The medium was removed from the dish with the transfected HEK293 cells via aspiration, trypsinized and cells were allowed to dissociate from the dish. Trypsin was neutralized using medium containing serum and centrifuged at 200×g for 5 minutes to pellet the cells. The cell density was adjusted to 2×10^5 cells/ml in Opti-MEM without phenol red.
The Complete 20× NanoBRET™ Tracer K5 Reagent with Tracer Dilution Buffer was prepared according to the manufacturer's instructions. One part of Complete 20× NanoBRET™ Tracer Reagent was added to 20 parts of cells in the tube. The sample was mixed gently by inversion 10 times. Next, the cell suspension was dispensed into white, 384-well NBS plates with a final tracer K5 concentration of 2 μM. The plate was incubated at 37° C., 5% CO2 for 1 hour. A separate set of samples without tracer were prepared for background correction steps.
The plate was removed from the incubator and equilibrated to room temperature for 15 minutes. The 3× Complete Substrate plus Inhibitor Solution in Assay Medium (Opti-MEMR I Reduced Serum Medium, no phenol red) was prepared just before measuring BRET. The 3× Complete Substrate plus Inhibitor Solution was added to each well of the 384-well plate and incubated for 2-3 minutes at room temperature. The donor emission wavelength (460 nm) and acceptor emission wavelength (600 nm) were measured using the Envision 2104 plate reader.
To generate raw BRET ratio values, the acceptor emission value (600 nm) was divided by the donor emission value (460 nm) for each sample. To correct for background, the BRET ratio in the absence of tracer (average of no-tracer control samples) was subtracted from the BRET ratio of each sample.
BRET Ratio=[(Acceptor sample÷Donor sample)−(Acceptor no-tracer control÷Donor no-tracer control)]

[4] = system: EZH2 expression; assay: Flow cytometry analysis for EZH2 expression in SW480 cells; type: cell-based; details: Homo sapiens, 24 hours treatment, 0-1000 nM, haploid and diploid cells, read-out: dose dependent decrease in EZH2 expression, IC50
Method: (§5) Reagents. MDA-MB-231 (Breast adenocarcinoma, triple negative breast cancer) and SW480 (colorectal adenocarcinoma, stem-like subtype) cells were purchased from ATCC and cultured as per manufacturer's instruction. Thymidine (Sigma, T9250) stock solution (100 mM) was prepared in PBS. 2′-Deoxycytidine (Sigma, D897) stock solution (240 mM) was prepared in distilled H2O. Nocodazole (Selleck Chemicals, S2775) stock solution (5 mg/mL) was made in dimethyl sulfoxide (DMSO). FxCycle Far Red stain (F10348) for cell cycle analysis was purchased from Thermo Fisher Scientific.
Antibodies. Polyclonal antibodies to phosphorylated-Ser55 Hec1 (PA5-85846; 1:1000) were purchased from ThermoFisher Scientific, and Phospho-Thr320 PP1α (2581S; 1:1000) and Total PP1α (2582S; 1:1000) were purchased from Cell Signaling Technologies. Monoclonal antibodies to Phospho-Ser10 Histone H3 (53348S; 1:1000), Total Histone H3 (14269; 1:5000), and EZH2-FITC (30233, 1:50) antibodies were purchased from Cell Signaling Technologies; Total Hec1 (ab109496; 1:10000) was purchased from Abcam; and Total NEK2 (sc-55601; 1:200) and GAPDH (sc-365062; 1:1000-2000) antibodies were purchased from Santa Cruz Technologies.
Flow Cytometry Analysis. […] A minimum of 100,000 events were analyzed in each sample, and the results were evaluated using FlowJo software. […]

[5] = system: SW480 cells; assay: Cell cycle analysis in SW480 cells by flow cytometry; type: cell-based; details: 24-hour treatment
Method: as §5
Flow Cytometry Analysis. The SW480 cells were treated with NEK2 inhibitors at a concentration ranging from 0-1000 nM for 24 hours. After 24 hours of treatment, cells were detached and dissociated using 0.25% trypsin. After trypsinization, cells were washed with ice-cold PBS and fixed in 4% paraformaldehyde (PFA) at room temperature for 20 minutes. After fixation, cells were permeabilized by incubating in 90% methanol for 30 minutes on ice. Subsequently, cells were stained with FITC conjugated anti-EZH2 antibody (1:50, Cell Signaling technology) for 2 hours at room temperature and FxCycle Far Red stain (Thermo Fisher Scientific) for visualization of EZH2 expression and cell cycle, respectively. […] A minimum of 100,000 events were analyzed in each sample, and the results were evaluated using FlowJo software. […]

[6] = HotSpot Kinase Assay, read-out: NEK2 IC50
[7] = HotSpot Kinase Assay, read-out: Aurora A IC50
[8] = NEK2 target engagement, read-out: NanoBRET IC50
[9] = comparator compounds, read-out: NEK2 Activity HotSpot Assay
[10] = comparator compounds, read-out: Aurora A Activity

IC50 [1, 6] [nM]	IC50 [2, 7] [nM]	IC50 [3, 8] [nM]	IC50 [2, 10] [nM]	Compound	also measured
> 15	> 1000	–	–	CN(C)CCn1cc(Nc2ncc(Cl)c(Nc3cccc(OCc4ccccc4F)c3C#N)n2)cn1 [Compound 32, 2-((5-chloro-2-((1-(2-(dimethylamino)ethyl)-1H-pyrazol-4-yl)amino)pyrimidin-4-yl)amino)-6-((2-fluorobenzyl)oxy)benzonitrile]	–
≤ 5	> 1000	50 to 150	–	COc1cnc(Nc2ccc(N3CCNCC3)cc2)nc1Nc1cccc(OCc2ccccc2F)c1C#N [Compound 10, 2-((2-fluorobenzyl)oxy)-6-((5-methoxy-2-((4-(piperazin-1-yl)phenyl)amino)pyrimidin-4-yl)amino)benzonitrile]	–
–	–	–	313	CN1CCN(c2ccc(Nc3ncc(Cl)c(Nc4ccc(C#N)c(OCc5ccccc5F)c4)n3)cc2)CC1 [CF-02, 4-((5-chloro-2-((4-(4-methylpiperazin-1-yl)phenyl)-amino)-pyrimidin-4-yl)amino)-2-((2-fluorobenzyl)-oxy)benzonitrile, reference compound]	IC50 [1, 9]: 264 nM
–	–	–	796	CN1CCN(Cc2ccc(Nc3ncc(Cl)c(Nc4ccc(C#N)c(OCc5ccccc5F)c4)n3)cc2)CC1 [CF-01, 4-((5-chloro-2-((4-((4-methylpiperazin-1-yl)methyl)phenyl)-amino)-pyrimidin-4-yl)amino)-2-((2-fluorobenzyl)-oxy)benzonitrile, reference compound]	IC50 [1, 9]: > 1000 nM; IC50 ([3]; comparator compounds, read-out: NEK2 Activity NanoBRET assay): 264 nM
–	–	–	0.1	CN1CCN(c2ccc(Nc3ncc(Cl)c(Nc4ccc(C(N)=O)c(OCc5ccccc5F)c4)n3)cc2)CC1 [CF-03, 4-((5-chloro-2-((4-(4-methylpiperazin-1-yl)phenyl)amino)-pyrimidin-4-yl)-amino)-2-((2-fluorobenzyl)oxy)benzamide, reference compound]	–

Continued, molecule first:

Compound	IC50 [1, 6] [nM]	IC50 [2, 7] [nM]	IC50 [3, 8] [nM]	IC50 [2, 10] [nM]	also measured
N#Cc1c(Nc2nc(Nc3ccc(N4CCOCC4)cc3)ncc2Cl)cccc1OCc1ccccc1F [Compound 2, 2-((5-chloro-2-((4-morpholinophenyl)amino)pyrimidin-4-yl)amino)-6-((2-fluorobenzyl)oxy)benzonitrile]	≤ 5	> 1000	> 150	–	–
Cc1cnc(Nc2ccc(N3CCNCC3)cc2)nc1Nc1cccc(OCc2ccccc2F)c1C#N [Compound 12, 2-((2-fluorobenzyl)oxy)-6-((5-methyl-2-((4-(piperazin-1-yl)phenyl)amino)pyrimidin-4-yl)amino)benzonitrile]	≤ 5	–	≤ 50	–	IC50 [4]: 214 nM
O=C(O)[C@]1(Cc2cccc(Nc3nccs3)n2)CC[C@@H](Oc2cccc(Cl)c2F)CC1 [MK-5108]	–	–	–	–	cell cycle distribution [5]: significantly arrested cells in G2-M phase
CCN(CCCOc1ccc2c(Nc3cc(CC(=O)Nc4cccc(F)c4)n[nH]3)ncnc2c1)CCOP(=O)(O)O [AZD-1152]	–	–	–	–	cell cycle distribution [5]: significantly arrested cells in G2-M phase
